Test system: H9 hESC-derived non-adherent hematopoietic progenitor cells
Test: Hematopoietic colony forming unit (CFU) assay (Example 1)
Format: cell-based, human
Method: FIG. 5A. H9 hESCs were differentiated as spin EB exposed to Stage I mesodermal induction media for 6 days and transferred to hemato-endothelial induction media with either DMSO, 1 μM SR-1, or 10 nM TCDD treatment for an additional 6 days. On day 12 of total differentiation, 50,000 non-adherent cells were obtained in each treatment group and seeded in Methocult H4436. Following 14 days of growth, colony-forming units (CFUs) were quantified and scored based on morphology. Data are represented as number of CFUs per 5×10^4 cells. FIG. 5B. Distribution of CFU morphology for DMSO-, SR-1-, and TCDD-treated H9 hESCs. *p<0.05 as compared to DMSO-treated H9 hESC (Student's t-test) and represent an average of three biological replicates with error bars representing SEM. CFU-GEMM: Colony-Forming Unit Granulocyte/Erythrocyte/Macrophage/Megakaryocyte; CFU-M: Colony-Forming Unit Macrophage; CFU-GM: Colony-Forming Unit-Granulocyte/Macrophage; CFU-E: Colony-Forming Unit Erythroid; BFU-E: Burst-Forming Unit-Erythroid.
Non-adherent, differentiated hematopoietic progenitor cells were harvested following 6 days growth as spin-EBs in Stage I conditions, followed by an additional 6 days growth in Stage II conditions. […] Plates were incubated in a 37° C. in a humidified atmosphere containing 5% CO2 for 14 days and were subsequently scored.

CC(C)n1cnc2c(NCCc3ccc(O)cc3)nc(-c3csc4ccccc34)nc21 [SR-1, StemReginin-1]
increase in total number of colonies relative to DMSO-treated control cells (non-adherent cells harvested at Day 12, 1 μM SR-1): 4 fold | proportion of CFU-M and CFU-GM (non-adherent cells harvested at Day 12, 1 μM SR-1, relative to DMSO): increased proportion

Source: patent US20170121683A1, “ARYL HYDROCARBON RECEPTOR DISRUPTION AND ENHANCEMENT” (priority 2015, published 2017)
